# In the OligoGym collection:
# Values joined by “and” are separate entries in the source; they are usually repeats but may differ in a detail not shown here. Equal entries are not always repeated. HELM strings list units from the 5' end as sugar, base in round brackets, then linkage (d deoxyribose, r ribose, m 2'-O-methyl, p phosphodiester). Strings are as the collection lists them, not checked against the first reports. ss, as = sense and antisense strand; [lna] = locked nucleic acid (LNA); [una] = unlocked nucleic acid; [fl2r] = 2'-fluoro
# Conditions: siRNA
# Note: test system not given here.
row,Substance,target mRNA knockdown
1,RNA1{r(U)p.r(C)p.r(C)p.r(U)p.r(A)p.r(C)p.r(A)p.r(G)p.r(C)p.r(A)p.r(C)p.r(A)p.r(A)p.r(C)p.r(A)p.r(A)p.r(A)p.r(U)p.r(G)p.d(U)p.d(G)}|RNA2{r(C)p.r(A)p.r(U)p.r(U)p.r(U)p.r(G)p.r(U)p.r(U)p.r(G)p.r(U)p.r(G)p.r(C)p.r(U)p.r(G)p.r(U)p.r(A)p.r(G)p.r(G)p.r(A)p.d(A)p.d(G)}$$$RNA1{StrandType:ss}|RNA2{StrandType:as}$,25% and 0%
2,RNA1{r(U)p.r(C)p.r(C)p.r(U)p.r(A)p.r(C)p.r(A)p.r(G)p.r(C)p.r(A)p.r(C)p.r(A)p.r(A)p.r(C)p.r(A)p.r(A)p.r(A)p.r(U)p.r(G)p.d(U)p.d(G)}|RNA2{r(C)p.r(A)p.r(U)p.r(U)p.r(U)p.r(G)p.r(U)p.r(U)p.r(G)p.r(U)p.r(G)p.r(C)p.r(U)p.r(G)p.r(U)p.r(A)p.r(G)p.r(G)p.r(A)p.d(T)p.d(T)}$$$RNA1{StrandType:ss}|RNA2{StrandType:as}$,54%
3,RNA1{r(U)p.r(C)p.r(C)p.r(U)p.r(C)p.r(G)p.r(U)p.m(C)p.r(G)p.r(U)p.r(C)p.m(U)p.r(G)p.r(U)p.r(U)p.r(C)p.m(U)p.r(A)p.r(A)p.r(T)p.r(T)}|RNA2{r(U)p.m(U)p.r(A)p.r(G)p.r(A)p.r(A)p.m(C)p.r(A)p.r(G)p.r(A)p.r(C)p.r(G)p.r(A)p.r(C)p.r(G)p.r(A)p.r(G)p.r(G)p.r(A)p.r(T)p.r(T)}$$$RNA1{StrandType:ss}|RNA2{StrandType:as}$,82%
4,RNA1{r(U)p.r(C)p.r(C)p.r(U)p.r(C)p.r(G)p.r(U)p.r(C)p.[fl2r](G)p.r(U)p.r(C)p.[fl2r](U)p.[fl2r](G)p.r(U)p.r(U)p.r(C)p.[fl2r](U)p.r(A)p.r(A)p.r(T)p.r(T)}|RNA2{r(U)p.[fl2r](U)p.r(A)p.r(G)p.r(A)p.r(A)p.[fl2r](C)p.r(A)p.r(G)p.r(A)p.r(C)p.r(G)p.r(A)p.r(C)p.r(G)p.r(A)p.r(G)p.r(G)p.r(A)p.r(T)p.r(T)}$$$RNA1{StrandType:ss}|RNA2{StrandType:as}$,77%
5,RNA1{r(U)p.r(C)p.r(C)p.r(U)p.r(C)p.r(G)p.r(U)p.r(C)p.r(G)p.r(U)p.r(C)p.r(U)p.r(G)p.r(U)p.r(U)p.r(C)p.[fl2r](U)p.r(A)p.r(A)p.r(T)p.r(T)}|RNA2{r(U)p.[fl2r](U)p.r(A)p.r(G)p.r(A)p.r(A)p.[fl2r](C)p.r(A)p.r(G)p.r(A)p.r(C)p.r(G)p.r(A)p.r(C)p.r(G)p.r(A)p.r(G)p.r(G)p.r(A)p.r(T)p.r(T)}$$$RNA1{StrandType:ss}|RNA2{StrandType:as}$,74%
6,RNA1{r(U)p.r(C)p.r(C)p.r(U)p.r(C)p.r(G)p.r(U)p.r(C)p.r(G)p.r(U)p.r(C)p.r(U)p.r(G)p.r(U)p.r(U)p.r(C)p.m(U)p.r(A)p.r(A)p.r(T)p.r(T)}|RNA2{r(U)p.m(U)p.r(A)p.r(G)p.r(A)p.r(A)p.r(C)p.r(A)p.r(G)p.r(A)p.r(C)p.r(G)p.r(A)p.r(C)p.r(G)p.r(A)p.r(G)p.r(G)p.r(A)p.r(T)p.r(T)}$$$RNA1{StrandType:ss}|RNA2{StrandType:as}$,84%
7,RNA1{r(U)p.r(C)p.r(G)p.r(G)p.r(G)p.r(A)p.r(A)p.r(A)p.r(U)p.r(U)p.r(U)p.r(C)p.r(U)p.r(C)p.r(U)p.r(A)p.r(U)p.r(U)p.r(A)p.d(T)p.d(T)}|RNA2{r(U)p.r(A)p.r(A)p.r(U)p.r(A)p.r(G)p.r(A)p.r(G)p.r(A)p.r(A)p.r(A)p.r(U)p.r(U)p.r(U)p.r(C)p.r(C)p.r(C)p.r(G)p.r(A)p.d(T)p.d(T)}$$$RNA1{StrandType:ss}|RNA2{StrandType:as}$,94% and 80%
8,RNA1{r(U)p.r(C)p.r(U)p.r(C)p.r(G)p.m(U)p.m(A)p.r(A)p.r(G)p.r(G)p.r(A)p.r(C)p.r(G)p.r(A)p.m(A)p.r(A)p.m(C)p.r(G)p.r(A)p.r(T)p.r(T)}|RNA2{r(U)p.r(C)p.r(G)p.r(U)p.r(U)p.r(U)p.r(C)p.r(G)p.r(U)p.r(C)p.r(C)p.r(U)p.m(U)p.r(A)p.r(C)p.r(G)p.r(A)p.r(G)p.r(A)p.r(T)p.r(T)}$$$RNA1{StrandType:ss}|RNA2{StrandType:as}$,52%
9,RNA1{r(U)p.r(C)p.r(U)p.r(C)p.r(G)p.r(U)p.r(A)p.r(A)p.r(G)p.r(G)p.r(A)p.r(C)p.r(G)p.r(A)p.r(A)p.r(A)p.r(C)p.r(G)p.r(A)p.r(T)p.r(T)}|RNA2{r(U)p.r(C)p.r(G)p.r(U)p.r(U)p.r(U)p.r(C)p.r(G)p.r(U)p.r(C)p.r(C)p.r(U)p.m(U)p.r(A)p.r(C)p.r(G)p.r(A)p.r(G)p.r(A)p.r(T)p.r(T)}$$$RNA1{StrandType:ss}|RNA2{StrandType:as}$,55%
10,RNA1{r(U)p.r(G)p.r(A)p.r(A)p.r(C)p.r(G)p.r(U)p.m(C)p.r(A)p.r(C)p.r(C)p.r(G)p.r(A)p.r(G)p.r(G)p.r(A)p.r(G)p.r(A)p.r(A)p.r(T)p.r(T)}|RNA2{r(U)p.r(U)p.r(C)p.r(U)p.r(C)p.r(C)p.r(U)p.r(C)p.r(G)p.r(G)p.r(U)p.r(G)p.r(A)p.r(C)p.r(G)p.r(U)p.r(U)p.m(C)p.r(A)p.r(T)p.r(T)}$$$RNA1{StrandType:ss}|RNA2{StrandType:as}$,85%
11,RNA1{r(U)p.r(G)p.r(A)p.r(A)p.r(U)p.r(C)p.r(A)p.r(G)p.r(A)p.r(A)p.r(G)p.r(A)p.r(U)p.r(G)p.r(A)p.r(A)p.r(G)p.r(U)p.r(C)p.r(A)p.r(A)}|RNA2{[una](G)p.r(A)p.r(C)p.r(U)p.r(U)p.r(C)p.r(A)p.r(U)p.r(C)p.r(U)p.r(U)p.r(C)p.r(U)p.r(G)p.r(A)p.r(U)p.r(U)p.r(C)p.r(A)p.r(A)p.r(G)}$$$RNA1{StrandType:ss}|RNA2{StrandType:as}$,94% and 92%
12,RNA1{r(U)p.r(G)p.r(A)p.r(G)p.r(A)p.r(G)p.r(A)p.r(A)p.r(A)p.r(G)p.r(C)p.r(A)p.r(C)p.r(A)p.r(G)p.r(A)p.r(A)p.r(A)p.r(A)p.d(T)p.d(T)}|RNA2{[lna](T)p.r(U)p.r(U)p.r(U)p.r(C)p.r(U)p.r(G)p.r(U)p.r(G)p.r(C)p.r(U)p.r(U)p.r(U)p.r(C)p.r(U)p.r(C)p.r(U)p.r(C)p.r(A)p.[lna](T)p.[lna](T)}$$$RNA1{StrandType:ss}|RNA2{StrandType:as}$,34%
13,RNA1{r(U)p.r(G)p.r(A)p.r(G)p.r(A)p.r(G)p.r(A)p.r(A)p.r(A)p.r(G)p.r(C)p.r(A)p.r(C)p.r(A)p.r(G)p.r(A)p.r(A)p.r(A)p.r(A)p.r(T)p.r(T)}|RNA2{[lna](T)p.r(U)p.r(U)p.r(U)p.r(C)p.r(U)p.r(G)p.r(U)p.r(G)p.r(C)p.r(U)p.r(U)p.r(U)p.r(C)p.r(U)p.r(C)p.r(U)p.r(C)p.r(A)p.[lna](T)p.[lna](T)}$$$RNA1{StrandType:ss}|RNA2{StrandType:as}$,45%
14,RNA1{r(U)p.r(U)p.m(A)p.m(C)p.r(A)p.r(A)p.r(A)p.r(G)p.r(G)p.r(A)p.r(U)p.r(C)p.r(U)p.r(C)p.r(C)p.r(U)p.r(C)p.r(C)p.r(C)p.r(T)p.r(T)}|RNA2{r(G)p.r(G)p.r(G)p.r(A)p.r(G)p.r(G)p.r(A)p.r(G)p.r(A)p.r(U)p.r(C)p.r(C)p.r(U)p.r(U)p.r(U)p.r(G)p.m(U)p.r(A)p.r(A)p.r(T)p.r(T)}$$$RNA1{StrandType:ss}|RNA2{StrandType:as}$,74%
